Each structure is given as a SMILES string.

The assay has as its target T1, full length human recombinant glucocorticoid receptor (Homo sapiens, UniProt P04150).
T1 construct: partially purified full length human recombinant glucocorticoid receptor; purchased Panvera/Invitrogen PV4302
T1 sequence (P04150 1-777): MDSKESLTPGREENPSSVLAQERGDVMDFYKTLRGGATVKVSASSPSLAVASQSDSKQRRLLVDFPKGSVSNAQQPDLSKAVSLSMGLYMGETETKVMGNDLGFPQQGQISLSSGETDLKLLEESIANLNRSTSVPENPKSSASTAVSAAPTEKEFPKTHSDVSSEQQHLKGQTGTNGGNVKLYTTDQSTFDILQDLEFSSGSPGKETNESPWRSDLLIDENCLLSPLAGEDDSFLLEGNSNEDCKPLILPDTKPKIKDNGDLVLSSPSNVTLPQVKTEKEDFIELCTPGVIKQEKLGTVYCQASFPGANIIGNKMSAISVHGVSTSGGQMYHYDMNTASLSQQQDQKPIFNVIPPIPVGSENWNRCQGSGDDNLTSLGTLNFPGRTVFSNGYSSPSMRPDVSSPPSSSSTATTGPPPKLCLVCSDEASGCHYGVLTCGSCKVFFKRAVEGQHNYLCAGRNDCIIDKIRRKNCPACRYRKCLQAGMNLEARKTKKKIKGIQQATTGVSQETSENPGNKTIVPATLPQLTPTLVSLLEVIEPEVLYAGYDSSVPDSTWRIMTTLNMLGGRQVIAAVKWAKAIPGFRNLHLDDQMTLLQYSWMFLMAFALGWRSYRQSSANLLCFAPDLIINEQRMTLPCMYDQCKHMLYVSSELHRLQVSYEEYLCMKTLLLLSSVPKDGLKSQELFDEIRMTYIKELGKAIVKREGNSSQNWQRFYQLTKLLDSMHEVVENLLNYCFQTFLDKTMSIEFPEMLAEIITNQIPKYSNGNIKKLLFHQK
The experiment in a line: Glucocorticoid Receptor Binding Assay (fluorescence polarization competitor assay, Fluormone GS Far Red tracer). As to the method:
Glucocorticoid Receptor Binding Assay
The ability of the substances to bind to the glucocorticoid receptor was determined with the help of a commercial Glucocorticoid Receptor Competitor Assay far red kit provided by Panvera/Invitrogen (PV4302). This kit is used as provided by the supplier. It contains some partially purified full length human recombinant glucocorticoid receptor, a coactivator related GR stabilizing peptide, a tight-binding fluorescent GR ligand Fluormone™ GS Far Red as labeled tracer and a screening buffer. All reagents are prepared and the assay is run according to the recommendations of the kit manufacturer.
Briefly, the GR stabilizing peptide and the human recombinant glucocorticoid receptor are both diluted with the screening buffer (pH 7.4) and are gently mixed (no vortexing) just before the assay and kept on ice until use. The fluorescent-labeled ligand is also diluted with the screening buffer just before the assay and kept on ice until use. The substances to test are pre-diluted in pure DMSO then some water is added to get an intermediate 4.2% DMSO stock solution. Ten microliter of the intermediate stock solution is gently mixed with 5 μl of diluted fluorescent-labeled ligand and 5 μl of diluted human recombinant glucocorticoid receptor in a 384-well plate (low volume, ultraclear, glass plate from Greiner ref 788896). The plate is centrifuged, sealed and incubated for 3 hours at 22° C. in the dark. The polarized fluorescence is measured with a Zeiss-HTS reader or any equivalent equipment (610-660 nm).
All compounds were tested to determine IC50 in a serial dilution experiment. The concentration at which 50% inhibition of the fluorescent GR ligand Fluormone™ GS Far Red is obtained (the IC50) is determined after fitting with a sigmoidal dose-response model of a plot of the logarithm of the concentration versus percent inhibition measured for the different concentrations. Ki's were calculated from IC50 based on Cheng-Prusoff equation (Cheng, Y, Prusoff, W H (1973) Biochem Pharmacol 22, 3099-3108): Ki=IC50/[1+D/Kd] wherein D is the concentration of the fluorescent ligand and Kd is the binding constant for the fluorescent ligand binding to the receptor under the conditions used in the competition experiment.
On to `CCOC(=O)c1ccc(COc2ccc([C@@H](C)[C@@](O)(c3cnc(C)cn3)C(F)(F)F)c(Cl)c2)cc1` (racemic) [Example 1, 4-{3-Chloro-4-[3,3,3-trifluoro-2-hydroxy-1-methyl-2-(5-methyl-pyrazin-2-yl)-propyl]-phenoxymethyl}-benzoic acid ethyl ester], for which the Ki was found to be 76.6 nM. In the case of `COC(=O)Cc1ccc(COc2ccc([C@@H](C)[C@@](O)(c3cnc(C)cn3)C(F)(F)F)c(Cl)c2)cc1` (racemic) [Example 11, (4-{3-Chloro-4-[3,3,3-trifluoro-2-hydroxy-1-methyl-2-(5-methyl-pyrazin-2-yl)-propyl]-phenoxymethyl}-phenyl)-acetic acid methyl ester], the Ki came out at 84 nM. Take `COC(=O)c1ccc(COc2ccc([C@@H](C)[C@@](O)(c3cnc(C)cn3)C(F)(F)F)c(Cl)c2)c(OC)c1` (racemic) [Example 15, 4-{3-Chloro-4-[3,3,3-trifluoro-2-hydroxy-1-methyl-2-(5-methyl-pyrazin-2-yl)-propyl]-phenoxymethyl}-3-methoxy-benzoic acid methyl ester]: the Ki worked out at 72.3 nM. For `Cc1cc([C@@](O)([C@@H](C)c2ccc(Oc3ccc(C(=O)O)c(F)c3)cc2Cl)C(F)(F)F)cn(C)c1=O` (racemic) [Example 204, 4-{3-Chloro-4-[2-(1,5-dimethyl-6-oxo-1,6-dihydro-pyridin-3-yl)-3,3,3-trifluoro-2-hydroxy-1-methyl-propyl]-phenoxy}-2-fluoro-benzoic acid] the value was 0.4 nM; for `Cc1cc([C@@](O)([C@@H](C)c2ccc(Oc3ccc(C(=O)O)cc3Cl)cc2Cl)C(F)(F)F)cn(C)c1=O` (racemic) [Example 215, 3-Chloro-4-{3-chloro-4-[2-(1,5-dimethyl-6-oxo-1,6-dihydro-pyridin-3-yl)-3,3,3-trifluoro-2-hydroxy-1-methyl-propyl]-phenoxy}-benzoic acid], 0.2 nM. Consider `Cc1cc([C@@](O)([C@@H](C)c2ccc(Oc3ccc(C(=O)O)cn3)cc2Cl)C(F)(F)F)cn(C)c1=O` (racemic) [Example 218, 6-{3-Chloro-4-[2-(1,5-dimethyl-6-oxo-1,6-dihydro-pyridin-3-yl)-3,3,3-trifluoro-2-hydroxy-1-methyl-propyl]-phenoxy}-nicotinic acid], for which the Ki was found to be 1.4 nM. Take `COC(=O)c1ccc(COc2ccc([C@@H](C)[C@@](O)(c3ccnc(Cl)c3)C(F)(F)F)c(Cl)c2)c(OC)c1` (relative stereo) [Example 21, 4-{3-Chloro-4-[2-(2-chloro-pyridin-4-yl)-3,3,3-trifluoro-2-hydroxy-1-methyl-propyl]-phenoxymethyl}-3-methoxy-benzoic acid methyl ester]: the Ki was 7.5 nM.

As to `COC(=O)Cc1ccc(COc2ccc([C@@H](C)[C@@](O)(c3ccnc(Cl)c3)C(F)(F)F)c(Cl)c2)cc1` (relative stereo) [Example 23, (4-{3-Chloro-4-[2-(2-chloro-pyridin-4-yl)-3,3,3-trifluoro-2-hydroxy-1-methyl-propyl]-phenoxymethyl}-phenyl)-acetic acid methyl ester], the Ki was 13.3 nM.

In the case of `COC(=O)c1ccc(N(C)C(=O)c2ccc([C@@H](C)[C@@](O)(c3ccnc(Cl)c3)C(F)(F)F)c(Cl)c2)cc1` (relative stereo) [Example 28, 4-({3-Chloro-4-[-2-(2-chloro-pyridin-4-yl)-3,3,3-trifluoro-2-hydroxy-1-methyl-propyl]-benzoyl}-methyl-amino)-benzoic acid methyl ester], the Ki is 114 nM. For `COC(=O)c1ccc(CNC(=O)c2ccc([C@@H](C)[C@@](O)(c3ccnc(Cl)c3)C(F)(F)F)c(Cl)c2)cc1` (relative stereo) [Example 36, 4-({3-Chloro-4-[2-(2-chloro-pyridin-4-yl)-3,3,3-trifluoro-2-hydroxy-1-methyl-propyl]-benzoylamino}-methyl)-benzoic acid methyl ester] the value was 117 nM; for `COC(=O)Cc1ccc(NC(=O)c2ccc([C@@H](C)[C@@](O)(c3ccnc(Cl)c3)C(F)(F)F)c(Cl)c2)cc1` (relative stereo) [Example 38, (4-{3-Chloro-4-[2-(2-chloro-pyridin-4-yl)-3,3,3-trifluoro-2-hydroxy-1-methyl-propyl]-benzoylamino}-phenyl)-acetic acid methyl ester], 155 nM. As to `COC(=O)c1cccc(NC(=O)c2ccc([C@@H](C)[C@@](O)(c3ccnc(Cl)c3)C(F)(F)F)c(Cl)c2)c1` (relative stereo) [Example 40, 3-{3-Chloro-4-[2-(2-chloro-pyridin-4-yl)-3,3,3-trifluoro-2-hydroxy-1-methyl-propyl]-benzoylamino}-benzoic acid methyl ester], the Ki is 121 nM. For the compound `C[C@H](c1ccc(C(=O)Nc2cccc(C(=O)O)n2)cc1Cl)[C@@](O)(c1ccnc(Cl)c1)C(F)(F)F` (relative stereo) [Example 44, 6-{3-Chloro-4-[2-(2-chloro-pyridin-4-yl)-3,3,3-trifluoro-2-hydroxy-1-methyl-propyl]-benzoylamino}-pyridine-2-carboxylic acid], the Ki turned out to be 228 nM. Regarding `CCOC(=O)c1noc(-c2ccc([C@@H](C)[C@@](O)(c3ccnc(Cl)c3)C(F)(F)F)c(Cl)c2)n1` (relative stereo) [Example 47, 5-{3-Chloro-4-[2-(2-chloro-pyridin-4-yl)-3,3,3-trifluoro-2-hydroxy-1-methyl-propyl]-phenyl}-[1,2,4]oxadiazole-3-carboxylic acid ethyl ester], the Ki is 47.1 nM.

As for `C[C@H](c1ccc(-c2ccc(C(=O)O)cc2)cc1Cl)[C@@](O)(c1ccnc(Cl)c1)C(F)(F)F` (relative stereo) [Example 50, 3′-Chloro-4′-[2-(2-chloro-pyridin-4-yl)-3,3,3-trifluoro-2-hydroxy-1-methyl-propyl]-biphenyl-4-carboxylic acid], the Ki came out at 48.5 nM. With `COC(=O)c1ccc(-c2ccc([C@@H](C)[C@@](O)(c3ccnc(Cl)c3)C(F)(F)F)c(Cl)c2)cc1F` (relative stereo) [Example 53, 3′-Chloro-4′-[2-(2-chloro-pyridin-4-yl)-3,3,3-trifluoro-2-hydroxy-1-methyl-propyl]-3-fluoro-biphenyl-4-carboxylic acid methyl ester], the Ki amounted to 14.9 nM. Turning to `C[C@H](c1ccc(COc2ccc(C(=O)O)cn2)cc1Cl)[C@@](O)(c1ccnc(Cl)c1)C(F)(F)F` (relative stereo) [Example 127, 6-{3-Chloro-4-[2-(2-chloro-pyridin-4-yl)-3,3,3-trifluoro-2-hydroxy-1-methyl-propyl]-benzyloxy}-nicotinic acid], the inhibition constant (Ki) was determined as 5.5 nM. For `C[C@H](c1cc(Oc2ccc(C(=O)O)cn2)ccc1Cl)[C@@](O)(c1ccnc(Cl)c1)C(F)(F)F` (relative stereo) [Example 133, 6-{4-Chloro-3-[2-(2-chloro-pyridin-4-yl)-3,3,3-trifluoro-2-hydroxy-1-methyl-propyl]-phenoxy}-nicotinic acid] the value was 207 nM; for `C[C@H](c1cc(Oc2ncc(C(=O)O)cn2)ccc1Cl)[C@@](O)(c1ccnc(Cl)c1)C(F)(F)F` (relative stereo) [Example 135, 2-{4-Chloro-3-[2-(2-chloro-pyridin-4-yl)-3,3,3-trifluoro-2-hydroxy-1-methyl-propyl]-phenoxy}-pyrimidine-5-carboxylic acid], 253 nM.

Source of the values: US8138189B2, “Substituted benzene compounds as modulators of the glucocorticoid receptor” (Hoffman-La Roche Inc., priority 2009, dated 2012).
